This note sets out measurements from US10736883B2, “Triazole furan compounds as agonists of the APJ receptor” (AMGEN INC., priority 2016, dated 2020).

In this test the target is APJ receptor (Homo sapiens (Human), UniProt P35414). The test is described as follows: [35S]GTPγS binding assay on membranes from CHO cells stably expressing human APJ receptor. Type of test: biochemical. Conditions: membranes of CHO cells stably expressing human APJ receptor, means of several independent experiments, read-out: Activity hAPJ SPA EC50 IP. How it is done:
The human APJ receptor was cloned by polymerase chain reaction and the gene encoding the receptor was subcloned in pFLAG-CMV™-3 expression vector (Sigma, Saint Louis, Mo. USA) in-house at Amgen. A GTPγS binding assay was performed on membranes prepared from CHO cells stably expressing human APJ receptor. The optimum experimental conditions for the concentrations of GDP, MgCl2, and NaCl in the assay buffer were initially determined. The assay was performed in assay buffer [20 mM HEPES, pH 7.5, 5 mM MgCl2, and 0.1% (w/v) BSA with 200 mM NaCl, 3 μM GDP] and membranes expressing human APJ receptor/well along with WGA PS beads. The reaction was initiated by addition of 0.2 nM [^35S]GTPγS (Perkin Elmer Life and Analytical Sciences, Waltham USA) in the absence or presence of various ligands and incubated at RT for 90 min. Nonspecific binding was determined in the presence of 100 μM GTPγS and was always less than 0.2% of total binding. All the results presented are means of several independent experiments and analyzed by non-linear regression methods using commercially available program Prism (GraphPad, San Diego, Calif.) to obtain EC50 detailed in Table 26.

Sequence of APJ receptor (P35414 whole entry): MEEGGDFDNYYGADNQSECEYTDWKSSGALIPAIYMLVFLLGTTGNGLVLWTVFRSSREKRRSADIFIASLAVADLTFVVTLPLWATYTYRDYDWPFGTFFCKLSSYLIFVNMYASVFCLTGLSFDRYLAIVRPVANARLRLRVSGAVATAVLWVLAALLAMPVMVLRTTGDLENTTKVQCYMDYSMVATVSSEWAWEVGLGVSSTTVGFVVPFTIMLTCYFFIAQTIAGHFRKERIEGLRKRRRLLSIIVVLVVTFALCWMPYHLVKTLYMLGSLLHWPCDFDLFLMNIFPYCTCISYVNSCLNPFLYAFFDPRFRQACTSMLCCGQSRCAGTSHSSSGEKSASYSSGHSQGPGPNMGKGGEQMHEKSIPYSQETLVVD

By EC50 is commonly meant the concentration that produces a half-maximal response. As for `COCC1(n2c(NS(=O)(=O)[C@@H](C)[C@H](OC)c3ncc(Cl)cn3)nnc2-c2ccc(C)o2)CC1` [Example 385.0, (1R,2S)-1-(5-chloro-2-pyrimidinyl)-1-methoxy-N-(4-(1-(methoxymethyl)cyclopropyl)-5-(5-methyl-2-furanyl)-4H-1,2,4-triazol-3-yl)-2-propanesulfonamide], the EC50 was determined as 0.38 nM. Turning to `COc1cccc(OC)c1-n1c(NS(=O)(=O)[C@H]2COc3cc(Cl)cnc3C2)nnc1-c1ccco1` (racemic) [Example 181.0, (3R)-7-Chloro-N-(4-(2,6-dimethoxyphenyl)-5-(2-furanyl)-4H-1,2,4-triazol-3-yl)-3,4-dihydro-2H-pyrano[3,2-b]pyridine-3-sulfonamide and (3S)-7-chloro-N-(4-(2,6-dimethoxyphenyl)-5-(2-furanyl)-4H-1,2,4-triazol-3-yl)-3,4-dihydro-2H-pyrano[3,2-b]pyridine-3-sulfonamide], the EC50 came out at 5.9 nM. The same measure for `COc1cccc(OC)c1-n1c(NS(=O)(=O)[C@@H](C)[C@H](O)c2cn(C)cn2)nnc1-c1ccc(C)o1.COc1cccc(OC)c1-n1c(NS(=O)(=O)[C@H](C)[C@@H](O)c2cn(C)cn2)nnc1-c1ccc(C)o1` (mixture of isomers) [Example 301.0, (1R,2S)—N-(4-(2,6-Dimethoxyphenyl)-5-(5-methyl-2-furanyl)-4H-1,2,4-triazol-3-yl)-1-hydroxy-1-(1-methyl-1H-imidazol-4-yl)-2-propanesulfonamide and (1S,2R)—N-(4-(2,6-dimethoxyphenyl)-5-(5-methyl-2-furanyl)-4H-1,2,4-triazol-3-yl)-1-hydroxy-1-(1-methyl-1H-imidazol-4-yl)-2-propanesulfonamide]: 13 nM; for `COc1cccc(OC)c1-n1c(NS(=O)(=O)[C@H](C)[C@H](O)c2cccc(C)n2)nnc1-c1ccc(C)o1` (stereo in doubt) [Example 87.0]: 0.41 nM; for `COc1cccc(OC)c1-n1c(NS(=O)(=O)[C@H](C)Cc2ccc(C#N)cn2)nnc1-c1ccc(C)o1` (single isomer, unassigned) [Example 33.0, (2R)-1-(5-cyano-2-pyridinyl)-N-(4-(2,6-dimethoxyphenyl)-5-(5-methyl-2-furanyl)-4H-1,2,4-triazol-3-yl)-2-propanesulfonamide or (2S)-1-(5-cyano-2-pyridinyl)-N-(4-(2,6-dimethoxyphenyl)-5-(5-methyl-2-furanyl)-4H-1,2,4-triazol-3-yl)-2-propanesulfonamide]: 2.4 nM. To `COc1ncnc(OC)c1-n1c(NS(=O)(=O)CCc2ccc(Cl)cc2)nnc1-c1ccco1` [Example 253.0, 2-(4-Chlorophenyl)-N-(4-(4,6-dimethoxy-5-pyrimidinyl)-5-(2-furanyl)-4H-1,2,4-triazol-3-yl)ethanesulfonamide] belongs 15 nM; to `COc1cccc(OC)c1-n1c(NS(=O)(=O)CCc2ncc(Cl)cc2CCN2CCOCC2)nnc1-c1ccco1` [Example 239.0, 2-(5-Chloro-3-(2-(4-morpholinyl)ethyl)-2-pyridinyl)-N-(4-(2,6-dimethoxyphenyl)-5-(2-furanyl)-4H-1,2,4-triazol-3-yl)ethanesulfonamide], 0.6 nM. Regarding `COc1cccc(OC)c1-n1c(NS(=O)(=O)[C@H]2CNC[C@H](c3ccc(F)cc3)C2)nnc1-c1ccco1` (single isomer, unassigned) [Example 188.0, (3R,5S)—N-(4-(2,6-Dimethoxyphenyl)-5-(2-furanyl)-4H-1,2,4-triazol-3-yl)-5-(4-fluorophenyl)-3-piperidinesulfonamide or (3S,5R)—N-(4-(2,6-dimethoxyphenyl)-5-(2-furanyl)-4H-1,2,4-triazol-3-yl)-5-(4-fluorophenyl)-3-piperidinesulfonamide], the 50% effective concentration (EC50) came out at 75 nM.

With `C[C@@H](Cc1ncc(F)cn1)S(=O)(=O)Nc1nnc(-c2ccco2)n1-c1ccccc1C(F)(F)F` [Example 318.0, (2S)-1-(5-Fluoro-2-pyrimidinyl)-N-(5-(2-furanyl)-4-(2-(trifluoromethyl)phenyl)-4H-1,2,4-triazol-3-yl)-2-propanesulfonamide and (2S)-1-(5-fluoro-2-pyrimidinyl)-N-(5-(2-furanyl)-4-(2-(trifluoromethyl)phenyl)-4H-1,2,4-triazol-3-yl)-2-propanesulfonamide], the EC50 was 420 nM. As for `COc1cccc(OC)c1-n1c(NS(=O)(=O)[C@H](C)[C@@H](C)c2ncc(F)cn2)nnc1-c1ccc(C)o1` [Example 109.0], the concentration for a half-maximal effect (EC50) came out at 0.87 nM. Regarding `COc1cccc(OC)c1-n1c(NS(=O)(=O)[C@H](C)Cc2ccncn2)nnc1-c1ccco1` (single isomer, unassigned) [Example 44.0, (2R)—N-(4-(2,6-dimethoxyphenyl)-5-(2-furanyl)-4H-1,2,4-triazol-3-yl)-1-(4-pyrimidinyl)-2-propanesulfonamide or (2S)—N-(4-(2,6-dimethoxyphenyl)-5-(2-furanyl)-4H-1,2,4-triazol-3-yl)-1-(4-pyrimidinyl)-2-propanesulfonamide], the EC50 stood at 44 nM. Regarding `CCOC(=O)[C@@H]1C[C@@H](S(=O)(=O)Nc2nnc(-c3ccco3)n2-c2c(OC)cccc2OC)CN(c2ncc(F)cn2)C1` [Example 158.0, Ethyl (3R,5R)-5-((4-(2,6-dimethoxyphenyl)-5-(2-furanyl)-4H-1,2,4-triazol-3-yl)sulfamoyl)-1-(5-fluoro-2-pyrimidinyl)-3-piperidinecarboxylate or ethyl (3S,5S)-5-((4-(2,6-dimethoxyphenyl)-5-(2-furanyl)-4H-1,2,4-triazol-3-yl)sulfamoyl)-1-(5-fluoro-2-pyrimidinyl)-3-piperidinecarboxylate], the 50% effective concentration (EC50) came to 0.4 nM. In the case of `COc1cccc(OC)c1-n1c(NS(=O)(=O)[C@@H](C)[C@@H](O)c2cc3ccccn3n2)nnc1-c1ccc(C)o1` (single isomer, unassigned) [Example 304.0, (1S,2S)—N-(4-(2,6-Dimethoxyphenyl)-5-(5-methyl-2-furanyl)-4H-1,2,4-triazol-3-yl)-1-hydroxy-1-pyrazolo[1,5-a]pyridin-2-yl-2-propanesulfonamide or (1R,2R)—N-(4-(2,6-dimethoxyphenyl)-5-(5-methyl-2-furanyl)-4H-1,2,4-triazol-3-yl)-1-hydroxy-1-pyrazolo[1,5-a]pyridin-2-yl-2-propanesulfonamide], the EC50 was found to be 16 nM. Turning to `COc1cccc(OC)c1-n1c(NS(=O)(=O)[C@H](C)Cc2ccc(C#N)cn2)nnc1-c1ccco1` (single isomer, unassigned) [Example 30.0, (2R)-1-(5-cyano-2-pyridinyl)-N-(4-(2,6-dimethoxyphenyl)-5-(2-furanyl)-4H-1,2,4-triazol-3-yl)-2-propanesulfonamide or (2S)-1-(5-cyano-2-pyridinyl)-N-(4-(2,6-dimethoxyphenyl)-5-(2-furanyl)-4H-1,2,4-triazol-3-yl)-2-propanesulfonamide], the concentration giving a half-maximal response (EC50) stood at 1.2 nM. To `COc1ccc(-n2c(NS(=O)(=O)[C@@H](C)Cc3ncc(F)cn3)nnc2-c2ccco2)c(OC)c1` (mixture of isomers) [Example 315.0, (2R)—N-(4-(2,4-Dimethoxyphenyl)-5-(2-furanyl)-4H-1,2,4-triazol-3-yl)-1-(5-fluoro-2-pyrimidinyl)-2-propanesulfonamide and (2S)—N-(4-(2,4-dimethoxyphenyl)-5-(2-furanyl)-4H-1,2,4-triazol-3-yl)-1-(5-fluoro-2-pyrimidinyl)-2-propanesulfonamide] belongs 270 nM; to `COc1cccc(OC)c1-n1c(NS(=O)(=O)[C@@H]2CCCN(C(=O)N(C)C)C2)nnc1-c1ccco1.COc1cccc(OC)c1-n1c(NS(=O)(=O)[C@H]2CCCN(C(=O)N(C)C)C2)nnc1-c1ccco1` (mixture of isomers) [Example 338.0, (R)-3-(N-(4-(2,6-Dimethoxyphenyl)-5-(furan-2-yl)-4H-1,2,4-triazol-3-yl)sulfamoyl)-N,N-dimethylpiperidine-1-carboxamide and (S)-3-(N-(4-(2,6-dimethoxyphenyl)-5-(furan-2-yl)-4H-1,2,4-triazol-3-yl)sulfamoyl)-N,N-dimethylpiperidine-1-carboxamide], 19 nM; to `COc1cccc(OC)c1-n1c(NS(=O)(=O)[C@H]2C[C@@H](O)CN(c3ncc(F)cn3)C2)nnc1-c1ccc(C)o1` (racemic) [Example 332.0], 0.45 nM. The same measure for `CO[C@H](c1ncc(Cl)cn1)[C@H](C)S(=O)(=O)Nc1nnc(-c2ccc(C)o2)n1C(C)C` [Example 388.0, (1R,2S)-1-(5-chloropyrimidin-2-yl)-N-(4-isopropyl-5-(5-methylfuran-2-yl)-4H-1,2,4-triazol-3-yl)-1-methoxypropane-2-sulfonamide]: 37 nM; for `COc1cccc(OC)c1-n1c(NS(=O)(=O)[C@@H](C)[C@H](O)c2cccc3ccnn23)nnc1-c1ccc(C)o1` (single isomer, unassigned) [Example 267.0, (1R,2S)—N-(4-(2,6-Dimethoxyphenyl)-5-(5-methyl-2-furanyl)-4H-1,2,4-triazol-3-yl)-1-hydroxy-1-pyrazolo[1,5-a]pyridin-7-yl-2-propanesulfonamide or (1S,2R)—N-(4-(2,6-dimethoxyphenyl)-5-(5-methyl-2-furanyl)-4H-1,2,4-triazol-3-yl)-1-hydroxy-1-pyrazolo[1,5-a]pyridin-7-yl-2-propanesulfonamide]: 0.43 nM.
